Biological target: T1, FXR ligand binding domain (Homo sapiens, UniProt Q96RI1)
T1 construct: made in house; host or cells: E. coli BL21 (pLysS)
T1 sequence (Q96RI1 193-472 isoform Q96RI1-2): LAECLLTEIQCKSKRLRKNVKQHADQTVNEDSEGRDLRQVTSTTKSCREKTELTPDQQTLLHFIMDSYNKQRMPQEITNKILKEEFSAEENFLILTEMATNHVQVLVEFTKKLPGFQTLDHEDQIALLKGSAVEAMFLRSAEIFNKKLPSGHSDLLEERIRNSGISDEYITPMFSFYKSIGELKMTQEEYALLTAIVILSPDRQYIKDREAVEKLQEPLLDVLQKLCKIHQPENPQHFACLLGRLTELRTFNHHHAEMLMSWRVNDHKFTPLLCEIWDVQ
Test: Radioligand Binding Assay (scintillation proximity radioligand displacement)
Settings: GST-FXR LBD fusion protein on SPA beads, test compound 6×10^−9 M to 2.5×10^−5 M
Description: The following tests were carried out in order to determine the activity of the compounds of formula (I). Background information on the binding assay can be found in: Nichols J S et al. “Development of a scintillation proximity assay for peroxisome proliferator-activated receptor gamma ligand binding domain”, (1998) Anal. Biochem. 257: 112-119.
Bacterial and mammalian expression vectors were constructed to produce glutathione-s-transferase (GST) and Gal4 DNA binding domain (GAL) proteins fused to the ligand binding domain (LBD) of human FXR (aa 193-473). To accomplish this, the portions of the sequences encoding the FXR LBD were amplified by polymerase chain reaction (PCR) from a full-length clone by PCR and then subcloned into the plasmid vectors. The final clone was verified by DNA sequence analysis.
The induction, expression, and subsequent purification of GST-LBD fusion protein was performed in E. coli strain BL21 (pLysS) cells by standard methods (Current Protocols in Molecular Biology, Wiley Press, ed. Ausubel et al.).
Radioligand Binding Assay
Binding of test substances to the FXR ligand binding domain was assessed in a radioligand displacement assay. The assay was performed in a buffer consisting of 50 mM Hepes, pH 7.4, 10 mM NaCl, 5 mM MgCl2, 0.01% CHAPS. For each reaction well in a 96-well plate, 40 nM of GST-FXR LBD fusion protein was bound to […] glutathione ytrium silicate SPA beads (PharmaciaAmersham) in a final volume of […] by shaking. A radioligand (e.g., 20 nM of 2,N-dicyclohexyl-2-[2-(2,4 dimethoxy-phenyl)-benzoimidazol-1-yl]-acetamide) and test compounds were added, and scintillation proximity counting was performed. All binding assays were performed in 96-well plates and the amount of bound ligand was measured on a Packard TopCount using OptiPlates (Packard). Dose response curves were performed within a range of test compound concentrations from 6×10^−9 M to 2.5×10^−5 M and IC50 values were calculated.

Compound	IC50
O=C(O)c1ccc(COc2cc(Cl)ccc2-c2nc3cc(F)c(F)cc3n2Cc2cccc(Cl)c2)cc1 [Example 56, 4-{5-Chloro-2-[1-(3-chloro-benzyl)-5,6-difluoro-1H-benzoimidazol-2-yl]-phenoxymethyl}-benzoic acid]	500 nM
Fc1cc2nc(-c3cccnc3OCC3CC3)n(Cc3ccccc3)c2cc1F [Example 8, 1-Benzyl-2-(2-cyclopropylmethoxy-pyridin-3-yl)-5,6-difluoro-1H-benzoimidazole]	5600 nM
O=C(O)c1ccc(COc2cc(Cl)ccc2-c2nc3cc(F)c(F)cc3n2Cc2ccccc2)cc1 [Example 51, 4-[2-(1-Benzyl-5,6-difluoro-1H-benzoimidazol-2-yl)-5-chloro-phenoxymethyl]-benzoic acid]	500 nM
O=C(O)c1cccc(Cn2c(-c3ccc(Cl)cc3OCC3CCCC3)nc3cc(F)c(F)cc32)c1 [Example 61, 3-[2-(4-Chloro-2-cyclopentylmethoxy-phenyl)-5,6-difluoro-benzoimidazol-1-ylmethyl]-benzoic acid]	500 nM
O=C(O)Cc1ccc(Cn2c(-c3ccc(Cl)cc3OCC3CCCC3)nc3cc(F)c(F)cc32)cc1 [Example 63, {4-[2-(4-Chloro-2-cyclopentylmethoxy-phenyl)-5,6-difluoro-benzoimidazol-1-ylmethyl]-phenyl}-acetic acid]	700 nM
O=C(O)COc1ccc(COc2ncccc2-c2nc3cc(F)c(F)cc3n2Cc2ccccc2)cc1 [Example 10, {4-[3-(1-Benzyl-5,6-difluoro-1H-benzoimidazol-2-yl)-pyridin-2-yloxymethyl]-phenoxy}-acetic acid]	12800 nM
COc1cc(Cl)ccc1-c1nc2cc(F)c(F)cc2n1Cc1ccc(-c2nnn[nH]2)cc1F [Example 71, 2-(4-Chloro-2-methoxy-phenyl)-5,6-difluoro-1-[2-fluoro-4-(1H-tetrazol-5-yl)-benzyl]-1H-benzoimidazole]	1100 nM
Fc1cc2nc(-c3ccc(Cl)cc3OCc3ccc(-c4nnn[nH]4)cc3F)n(CC3CCOCC3)c2cc1F [Example 47, 2-{4-Chloro-2-[2-fluoro-4-(1H-tetrazol-5-yl)-benzyloxy]-phenyl}-5,6-difluoro-1-(tetrahydro-pyran-4-ylmethyl)-1H-benzoimidazole]	900 nM
O=C(O)CCc1ccc(Cn2c(-c3cccnc3OCC3CC3)nc3cc(F)c(F)cc32)cc1 [Example 16, 3-{4-[2-(2-Cyclopropylmethoxy-pyridin-3-yl)-5,6-difluoro-benzoimidazol-1-ylmethyl]-phenyl}-propionic acid]	66100 nM
O=C(O)COc1ccc(COc2ncccc2-c2nc3cc(F)c(F)cc3n2Cc2cccc(Cl)c2)cc1 [Example 15, (4-{3-[1-(3-Chloro-benzyl)-5,6-difluoro-1H-benzoimidazol-2-yl]-pyridin-2-yloxymethyl}-phenoxy)-acetic acid]	2600 nM
CCC(CC)COc1cc(Cl)ccc1-c1nc2cc(F)c(F)cc2n1Cc1ccc(-c2nnn[nH]2)cc1F [Example 88, 2-[4-Chloro-2-(2-ethyl-butoxy)-phenyl]-5,6-difluoro-1-[2-fluoro-4-(1H-tetrazol-5-yl)-benzyl]-1H-benzoimidazole]	10 nM
O=C(O)c1ccc(COc2ncccc2-c2nc3cc(F)c(F)cc3n2Cc2ccccc2)cc1 [Example 9, 4-[3-(1-Benzyl-5,6-difluoro-1H-benzoimidazol-2-yl)-pyridin-2-yloxymethyl]-benzoic acid]	10500 nM
Fc1cc2nc(-c3cccnc3OCc3ccccc3Cl)n(Cc3ccccc3)c2cc1F [Example 6, 1-Benzyl-2-[2-(2-chloro-benzyloxy)-pyridin-3-yl]-5,6-difluoro-1H-benzoimidazole]	1800 nM
Fc1cc2nc(-c3ccc(Cl)cc3OCC3CC3)n(Cc3ccccc3)c2cc1F [Example 50, 1-Benzyl-2-(4-chloro-2-cyclopropylmethoxy-phenyl)-5,6-difluoro-1H-benzoimidazole]	1900 nM
Fc1cc2nc(-c3ccccc3COc3ccc(-c4nnn[nH]4)c(F)c3)n(CC3CCCCC3)c2cc1F [Example 41, 1-Cyclohexylmethyl-5,6-difluoro-2-{2-[3-fluoro-4-(1H-tetrazol-5-yl)-phenoxymethyl]-phenyl}-1H-benzoimidazole]	200 nM
O=C(O)CCc1ccc(Cn2c(-c3ccc(Cl)cc3OCC3CC3)nc3cc(F)c(F)cc32)cc1 [Example 60, 3-{4-[2-(4-Chloro-2-cyclopropylmethoxy-phenyl)-5,6-difluoro-benzoimidazol-1-ylmethyl]-phenyl}-propionic acid]	1300 nM

The remaining lines, values ahead:

IC50	Compound
10 nM	c1ccc(-c2nc3ccccc3n2CCC2CCCCC2)c(CCc2ccc(-c3nnn[nH]3)cc2)c1 [Example 83, 1-(2-Cyclohexyl-ethyl)-2-(2-{2-[4-(1H-tetrazol-5-yl)-phenyl]-ethyl}-phenyl)-1H-benzoimidazole]
30 nM	O=C(O)CCc1ccc(Cn2c(-c3ccc(Cl)cc3OCc3ccccc3Cl)nc3cc(F)c(F)cc32)cc1 [Example 58, 3-(4-{2-[4-Chloro-2-(2-chloro-benzyloxy)-phenyl]-5,6-difluoro-benzoimidazol-1-ylmethyl}-phenyl)-propionic acid]
3 nM	O=C(Nc1ccc(-c2nnn[nH]2)cc1F)c1ccccc1-c1nc2cc(F)c(F)cc2n1CC1CCCCC1 [Example 86, 2-(1-Cyclohexylmethyl-5,6-difluoro-1H-benzoimidazol-2-yl)-N-[2-fluoro-4-(1H-tetrazol-5-yl)-phenyl]-benzamide]
40 nM	Fc1cc2nc(-c3ccc(Cl)cc3OCc3ccc(-c4nnn[nH]4)cc3F)n(CC3CCCC3)c2cc1F [Example 42, 2-{4-Chloro-2-[2-fluoro-4-(1H-tetrazol-5-yl)-benzyloxy]-phenyl}-1-cyclopentylmethyl-5,6-difluoro-1H-benzoimidazole]
30 nM	Fc1cc(-c2nnn[nH]2)ccc1COc1cc(Cl)ccc1-c1nc2ccccc2n1CC1CCCCC1 [Example 39, 2-{4-Chloro-2-[2-fluoro-4-(1H-tetrazol-5-yl)-benzyloxy]-phenyl}-1-cyclohexylmethyl-1H-benzoimidazole]
200 nM	Fc1cc2nc(-c3cccnc3OCC3CCCC3)n(CC3CCCCC3)c2cc1F [Example 1, 1-Cyclohexylmethyl-2-(2-cyclopentylmethoxy-pyridin-3-yl)-5,6-difluoro-1H-benzoimidazole]
40 nM	Fc1cc2nc(-c3ccccc3OCC3CCCC3)n(Cc3ccc(-c4nnn[nH]4)cc3F)c2cc1F [Example 94, 2-(2-Cyclopentylmethoxy-phenyl)-5,6-difluoro-1-[2-fluoro-4-(1H-tetrazol-5-yl)-benzyl]-1H-benzoimidazole]
80 nM	Fc1cc2nc(-c3ccc(Cl)cc3OCC3CCCC3)n(Cc3ccc(-c4nnn[nH]4)c(F)c3)c2cc1F [Example 69, 2-(4-Chloro-2-cyclopentylmethoxy-phenyl)-5,6-difluoro-1-[3-fluoro-4-(1H-tetrazol-5-yl)-benzyl]-1H-benzoimidazole]
100 nM	Fc1cc2nc(-c3ccc(Cl)cc3OCc3ccc(-c4nnn[nH]4)cc3F)n(CC3CCCCO3)c2cc1F (centres unmarked) [Example 45, 2-{4-Chloro-2-[2-fluoro-4-(1H-tetrazol-5-yl)-benzyloxy]-phenyl}-5,6-difluoro-1-(tetrahydro-pyran-2-ylmethyl)-1H-benzoimidazole]
50 nM	CCCOc1cc(Cl)ccc1-c1nc2cc(F)c(F)cc2n1Cc1ccc(-c2nnn[nH]2)cc1F [Example 91, 2-(4-Chloro-2-propoxy-phenyl)-5,6-difluoro-1-[2-fluoro-4-(1H-tetrazol-5-yl)-benzyl]-1H-benzoimidazole]
200 nM	O=C(O)COc1ccc(COc2cc(Cl)ccc2-c2nc3cc(F)c(F)cc3n2Cc2cccc(Cl)c2)cc1 [Example 57, (4-{5-Chloro-2-[1-(3-chloro-benzyl)-5,6-difluoro-1H-benzoimidazol-2-yl]-phenoxymethyl}-phenoxy)-acetic acid]
4 nM	Fc1cc2nc(-c3ccccc3COc3ccc(-c4nnn[nH]4)cc3F)n(CC3CCCCC3)c2cc1F [Example 40, 1-Cyclohexylmethyl-5,6-difluoro-2-{2-[2-fluoro-4-(1H-tetrazol-5-yl)-phenoxymethyl]-phenyl}-1H-benzoimidazole]
80 nM	O=C(O)COc1ccc(CCc2ccccc2-c2nc3ccccc3n2CC2CCCCC2)cc1 [Example 79, (4-{2-[2-(1-Cyclohexylmethyl-1H-benzoimidazol-2-yl)-phenyl]-ethyl}-phenoxy)-acetic acid]

Source: US8309581B2, “Benzimidazole derivatives” (Hoffmann-La Roche Inc., priority 2009, dated 2012)
